From patent US5707979A, “Phosphinic acid derivatives, their preparation and their use” (Hoechst Aktiengesellschaft, priority 1994, dated 1998)

What follows are compounds tested against HIV protease (Human immunodeficiency virus type 1 group M subtype B, UniProt P04585) (assay: Test for inhibition of the HIV protease). Settings: carried out as described in EP 0 428 849 A2, read-out: IC50 (concentration at which the activity of the enzyme is halved).
Format: biochemical
Description: 24) Test for inhibition of the HIV protease
The test for inhibition of the HIV protease was carried out as described in EP 0 428 849 A2. The following IC50 values indicate the concentration at which the activity of the enzyme is halved;

Compared with `O=C1N(Cc2ccc3ccccc3c2)[C@@H](Cc2ccccc2)P(=O)(O)[C@H](Cc2ccccc2)N1Cc1ccc2ccccc2c1` (relative stereo) [Example 19, 2,6-Dibenzyl-3,5-(2-naphthylmethyl)-1-hydroxy-3,5-diaza-4-oxophosphorinane-1-oxide (racemate composed of [2S,6S] and [2R,6R])], `O=C1N(Cc2ccccc2)[C@@H](Cc2ccccc2)P(=O)(O)[C@@H](Cc2ccccc2)N1Cc1ccccc1` [Example 10, ([2R],3,5,[6S])-Tetrabenzyl-1-hydroxy-3,5-diaza-4-oxophosphorinone-1-oxide] is 160-fold higher in IC50: 0.32 µM for the first, 50 µM for the second.

Compared with `O=C1N(Cc2ccc(CO)cc2)[C@@H](Cc2ccccc2)P(=O)(O)[C@H](Cc2ccccc2)N1Cc1ccc(CO)cc1` (relative stereo) [Example 23, ([2R],[6S])-Dibenzyl-3,5-(4-hydroxymethylbenzyl)-1-hydroxy-3,5-diaza-4-oxophosphorinane-1-oxide (racemate composed of [2S,6S] and [2R,6R])], `O=C1N(Cc2ccc(CO)cc2)[C@@H](Cc2ccccc2)P(=O)(O)[C@@H](Cc2ccccc2)N1Cc1ccc(CO)cc1` [Example 12, ([2R],[6S])-Dibenzyl-3,5-(4-hydroxymethylbenzyl)-1-hydroxy-3,5-diaza-4-oxophosphorinone-1-oxide] is 20-fold higher in IC50: 0.24 µM for the first, 4.8 µM for the second.

`O=C1N(Cc2ccc(CBr)cc2)[C@@H](Cc2ccccc2)P(=O)(O)[C@@H](Cc2ccccc2)N1Cc1ccc(CBr)cc1` [Example 13, ([2R],[6S])-Dibenzyl-3,5-(4-bromomethylbenzyl)-1-hydroxy-3,5-diaza-4-oxophosphorinone-1-oxide] was tested, and the IC50 was 18 µM.
